Assay results as given in US6846678B2, “Gamma sterilized buffer solutions for pH measurement” (Terumo Cardiovascular Systems, Co.-Tustin, priority 2002, dated 2005).

Columns and labels:
[1] = Effect of gamma sterilization (25-35 kGy) on preservatives in buffer; assay type: physicochemical; conditions: for Result post-gamma sterilization: gamma sterilization 25-35 kGy
Method: In a preferred embodiment, sterilization is performed by use of a gamma irradiation system having a Cobalt-60 source. The system used in the examples and data presented below is a dual source (i.e. two source racks), affording continuous irradiation and wet storage. The sterilization range was 25-35 kGy, set by adjusting the time of exposure to a constant radiation source. All sterilization dose ranges were confirmed by dosimeters.
Cf. Table 3. We examined a variety of preservatives for use in this buffer.

six different organisms = conditions: over eight weeks, unsterile buffer
Text: We tested the Buffers according to USP protocol for “Antimicrobial Preservatives Effectiveness” (United States Pharmacopeia, Volume XXIV, Microbiological Tests, Section (51) Antimicrobial Effectiveness Testing, pp. 1809-11, Official Jan. 1, 2000).

In the case of `CC(C)(C)CC(C)(C)c1ccc(OCCOCC[N+](C)(C)Cc2ccccc2)cc1` [Benzethonium chloride], the Result post-gamma sterilization [1] is reported as “Acceptable”, the “effect on the final buffer formulation with regard to pH level, stability, and cosmetic factors” value ([1]; gamma sterilization cycle) is reported as “minimal effect” and the “counts for five of the organisms” value (six different organisms) is reported as “no counts”. The “log reduction for the sixth organism” value (six different organisms) was > 3 log.
In the case of `N=C(NCCCCCCNC(=N)NC(=N)Nc1ccc(Cl)cc1)NC(=N)Nc1ccc(Cl)cc1` [Chlorohexidine], the Result post-gamma sterilization [1] is reported as “Precipitated”.
In the case of `Cl/C=C\C[N+]12CN3CN(CN(C3)C1)C2.[Cl-]` [Dowicil 200], the Result post-gamma sterilization [1] is reported as “Acidified, drifted”.
With `O=C1C(N(CO)C(=O)NCO)N(CO)C(=O)N1CO` (stereo not shown) [Germall II] the Result post-gamma sterilization [1] was “Strong acidification, evolved CO2”.
For `COC(=O)c1ccc(O)cc1` [Methyl paraben], the Result post-gamma sterilization [1] was “Acidified”.
In the case of `CCCOC(=O)c1ccc(O)cc1` [Propyl paraben], the Result post-gamma sterilization [1] is reported as “Precipitated”.
With Benzalkonium chloride the Result post-gamma sterilization [1] was “Precipitated”.
